Assay results taken from ChEMBL document CHEMBL1124686.
Activity calls are given as the source filed them. The calls are words filed in the database; no cut-off is given here.

What was measured:
[1] = target: D(2) dopamine receptor (Mus musculus) (UniProt P61168); experiment: Compound was evaluated for its ability to inhibit the potassium -induced release of [3H]- acetylcholine release in mouse striatal […] by stimulating D2 receptor; conditions: Striatum
[2] = target: D(2) dopamine receptor (Mus musculus) (UniProt P61168); experiment: The dissociation constant for the inhibition of agonist effect on the K+ evoked release of [3H]- acetylcholine in mouse striatal […]; NS means No statistically significant antagonism observed in […]; type: functional
[3] = target: D(2) dopamine receptor (Mus musculus) (UniProt P61168); experiment: Compound was evaluated for its ability to inhibit the potassium -induced release of [3H]- acetylcholine release in mouse striatal […] by stimulating dopamine receptor D2; conditions: Striatum
[4] = target: D(2) dopamine receptor (Mus musculus) (UniProt P61168); conditions: Striatum; Membrane
Description: Compound was evaluated for its ability to inhibit the potassium -induced release of [3H]- acetylcholine release in mouse striatal membranes by stimulating Dopamine receptor D2

Chain of D(2) dopamine receptor (Mus musculus) (P61168 whole entry): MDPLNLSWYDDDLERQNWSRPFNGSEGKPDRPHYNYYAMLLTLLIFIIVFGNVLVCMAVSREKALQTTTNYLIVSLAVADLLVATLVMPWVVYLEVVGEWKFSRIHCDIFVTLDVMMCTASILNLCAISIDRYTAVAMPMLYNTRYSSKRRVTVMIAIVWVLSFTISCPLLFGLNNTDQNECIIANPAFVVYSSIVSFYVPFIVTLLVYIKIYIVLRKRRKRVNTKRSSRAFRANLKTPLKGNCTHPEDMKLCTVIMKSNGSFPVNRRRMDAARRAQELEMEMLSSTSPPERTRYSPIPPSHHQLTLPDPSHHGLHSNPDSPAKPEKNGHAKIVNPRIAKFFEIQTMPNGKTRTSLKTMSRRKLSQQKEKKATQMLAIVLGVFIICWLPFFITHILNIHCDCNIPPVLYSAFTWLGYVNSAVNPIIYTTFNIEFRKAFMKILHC

Row | Structure (SMILES) | ED50 [3] [nM] | further results
1 | CC[S+]1CCCC1CNC(=O)c1cc(S(N)(=O)=O)ccc1OC (stereo unspecified) |  | ED50 [1]: 38.4 nM
2 | COc1ccc(S(N)(=O)=O)cc1C(=O)NCC1CCCS1 (stereo unspecified) | 48.1 | Kb [2]: inactive
3 | CC[N+]1(CC)CCCC1CNC(=O)c1cc(S(N)(=O)=O)ccc1OC (stereo unspecified) | 26.3 | 
4 | CCN1CCCC1CNC(=O)c1cc(S(N)(=O)=O)ccc1OC (stereo unspecified) |  | ED50 [4]: 75.9 nM
5 | CC[N+]1(C)CCCC1CNC(=O)c1cc(S(N)(=O)=O)ccc1OC (stereo unspecified) | 25.1 | 
